31 compounds from patent US20220030868A1, “FUNGICIDAL HALOMETHYL KETONES AND HYDRATES” (FMC CORPORATION, priority 2018, published 2022) can be followed below.

The pest or weed control is how far the test organism was held down. Read a low pest or weed control as a weak effect.

Assay type in all cases: in vivo
One assay has as its system Phakopsora pachyrhizi. In words: Test A: test suspension sprayed on soybean seedlings one day before inoculation with Phakopsora pachyrhizi spores (Asian soybean rust), visual disease rating. Conditions: 100 = 100% disease control, 0 = no control; for pest or weed control at 10 ppm / Test A rating (disease control): 10 ppm test suspension. Put shortly: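 Compound dissolved in acetone (3% of final volume), then suspended at the stated ppm in 50/50 acetone/water with 250 ppm PEG400 surfactant; sprayed to run-off on soybean seedlings, inoculated with P. pachyrhizi spores next day. Held saturated at 22° C for 24 h, then 8 days at 22° C; visual rating as % disease control versus controls.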

The subject of another assay is Uncinula necator. In words: Test C: test suspension sprayed on grape seedlings one day before inoculation with Uncinula necator spores (grape powdery mildew), disease rating. Conditions: Erysiphe necator, 100 = 100% disease control; for pest or weed control at 50 ppm: 50 ppm test suspension. From the text:
General protocol for preparing test suspensions for Tests A-C: the test compounds were first dissolved in acetone in an amount equal to 3% of the final volume and then suspended at the desired concentration (in ppm) in acetone and purified water (50/50 mix by volume) containing 250 ppm of the surfactant PEG400 (polyhydric alcohol esters). The resulting test suspensions were then used in Tests A-C. The test solution was sprayed to the point of run-off on grape seedlings. The following day the seedlings were inoculated with a spore suspension of Uncinula necator (the causal agent of grape powdery mildew) and incubated in a growth chamber at 20° C. for 12 days, after which time disease ratings were made. Results for Tests A-C are given in Table A. In the Table, a rating of 100 indicates 100% disease control and a rating of 0 indicates no disease control (relative to the controls). An asterisk “*” or a double asterisk “**” next to the rating value indicates a 50 ppm or 10 ppm test suspension was used, respectively. A dash (-) indicates the compound was not tested.

Assay [1] has as its system Puccinia recondita f. sp. tritici. In words: Test B: test suspension sprayed on wheat seedlings one day before inoculation with Puccinia recondita f. sp. tritici spores (wheat leaf rust), disease rating. Conditions: 100 = 100% disease control, 0 = no control; for pest or weed control at 10 ppm / Test B rating (disease control): 10 ppm test suspension. Summed up: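 Wheat seedlings were sprayed to run-off with compound suspended in 50/50 acetone/water containing 250 ppm PEG400, then inoculated with P. recondita f. sp. tritici spores the next day. Plants were held 24 h in saturated air at 20 °C, then 6 days in a growth chamber at 20 °C. Disease control was rated 0–100% relative to controls, with some entries run at 50 or 10 ppm.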

As for `CCOC(=O)c1cnn(Cc2ccc(OCC3(C(F)(F)F)OCCO3)cc2)c1` [Compound 32, ethyl 1-[[4-[[2-(trifluoromethyl)-1,3-dioxolan-2-yl]methoxy]phenyl]methyl]-1H-pyrazole-4-carboxylate], the pest or weed control at 50 ppm in the assay with Phakopsora pachyrhizi (Phakopsora pachyrhizi, 50 ppm test suspension) worked out at 100%; with Uncinula necator it was 100%; in assay [1] (50 ppm test suspension) it was 68%.
For the compound `CCOC(=O)c1cnn(Cc2ccc(O/C=C(\OCC)C(F)(F)F)cc2)c1` [Compound 64, ethyl 1-[[4-[[(1Z)-2-ethoxy-3,3,3-trifluoro-1-propen-1-yl]oxy]phenyl]methyl]-1H-pyrazole-4-carboxylate], the pest or weed control at 250 ppm in the assay on Phakopsora pachyrhizi (Phakopsora pachyrhizi, 250 ppm test suspension) was 100%; in assay [1] (250 ppm test suspension), 99%. The same compound came in with a pest or weed control at 10 ppm with Uncinula necator (10 ppm test suspension (double asterisk)) of 100%.
Consider `CC(C)COC(=O)c1cnn(Cc2ccc(OCC3(C(F)(F)F)OCCO3)cc2)c1` [Compound 126, 2-methylpropyl 1-[[4-[[2-(trifluoromethyl)-1,3-dioxolan-2-yl]methoxy]phenyl]methyl]-1H-pyrazole-4-carboxylate], for which the results for the pest or weed control at 10 ppm (with Phakopsora pachyrhizi (Phakopsora pachyrhizi); in assay [1]) were 100% and 0%, respectively. This compound also had a pest or weed control at 50 ppm in the assay with Uncinula necator of 100%.
As for `O=C(OCC1CC1)c1cnn(Cc2ccc(OCC3(C(F)(F)F)OCCO3)cc2)c1` [Compound 127, cyclopropylmethyl 1-[[4-[[2-(trifluoromethyl)-1,3-dioxolan-2-yl]methoxy]phenyl]methyl]-1H-pyrazole-4-carboxylate], the pest or weed control at 10 ppm was 100% with Phakopsora pachyrhizi (Phakopsora pachyrhizi) and 0% in assay [1]. The compound also registered a pest or weed control at 50 ppm in the assay with Uncinula necator of 100%.
For `CCOC(=O)c1cnn(CCc2ccc(O/C=C(\OCC)C(F)(F)F)cc2)c1` [Compound 132, ethyl 1-[2-[4-[[(1Z)-2-ethoxy-3,3,3-trifluoro-1-propen-1-yl]oxy]phenyl]ethyl]-1H-pyrazole-4-carboxylate], the pest or weed control at 10 ppm was 100% in the assay with Phakopsora pachyrhizi (Phakopsora pachyrhizi) and 0% in assay [1]. The pest or weed control at 50 ppm in the assay on Uncinula necator was found to be 98%.
Take `COCCOC(=O)c1cnn(Cc2ccc(OCC3(C(F)(F)F)OCCO3)cc2)c1` [Compound 162, 2-methoxyethyl 1-[[4-[[2-(trifluoromethyl)-1,3-dioxolan-2-yl]methoxy]phenyl]methyl]-1H-pyrazole-4-carboxylate]: the pest or weed control at 10 ppm with Phakopsora pachyrhizi (Phakopsora pachyrhizi) was determined as 100%; in assay [1] it was 0%. The same compound had a pest or weed control at 50 ppm in the assay on Uncinula necator of 100%.
Turning to `CC#CCOC(=O)c1cnn(Cc2ccc(OCC3(C(F)(F)F)OCCO3)cc2)c1` [Compound 163, 2-butyn-1-yl 1-[[4-[[2-(trifluoromethyl)-1,3-dioxolan-2-yl]methoxy]phenyl]methyl]-1H-pyrazole-4-carboxylate], the pest or weed control at 10 ppm with Phakopsora pachyrhizi (Phakopsora pachyrhizi) was 100%; in assay [1], 0%. This compound displayed a pest or weed control at 50 ppm in the assay on Uncinula necator of 100%.
Consider `N#CCCCOC(=O)c1cnn(Cc2ccc(OCC3(C(F)(F)F)OCCO3)cc2)c1` [Compound 171, 3-cyanopropyl 1-[[4-[[2-(trifluoromethyl)-1,3-dioxolan-2-yl]methoxy]phenyl]methyl]-1H-pyrazole-4-carboxylate], for which the results for the pest or weed control at 10 ppm (with Phakopsora pachyrhizi (Phakopsora pachyrhizi); in assay [1]) were 100% and 0%, respectively. Further, the pest or weed control at 50 ppm in the assay with Uncinula necator came out at 99%.
As to `CCCCOC(=O)c1cnn(Cc2ccc(O/C=C(\OCC)C(F)(F)F)cc2)c1` [Compound 218, butyl 1-[[4-[[(1Z)-2-ethoxy-3,3,3-trifluoro-1-propen-1-yl]oxy]phenyl]methyl]-1H-pyrazole-4-carboxylate], the figures for the pest or weed control at 10 ppm (in the assay with Phakopsora pachyrhizi (Phakopsora pachyrhizi); in assay [1]) were 100% and 0%, respectively. The same compound displayed a pest or weed control at 50 ppm with Uncinula necator of 100%.
Take `CCO/C(=C\Oc1ccc(Cn2cc(C(=O)OCCCCl)cn2)cc1)C(F)(F)F` [Compound 221, 3-chloropropyl 1-[[4-[[(1Z)-2-ethoxy-3,3,3-trifluoro-1-propen-1-yl]oxy]phenyl]methyl]-1H-pyrazole-4-carboxylate]: the pest or weed control at 10 ppm is 100% in the assay with Phakopsora pachyrhizi (Phakopsora pachyrhizi) and 0% in assay [1]. For the same compound, in the assay on Uncinula necator, the pest or weed control at 50 ppm turned out to be 100%.
Turning to `CCOC(=O)c1cnn(Cc2ccc(O/C=C(\OCC)C(F)(F)F)c(F)c2)c1` [Compound 262, ethyl 1-[[4-[[(1Z)-2-ethoxy-3,3,3-trifluoro-1-propen-1-yl]oxy]-3-fluorophenyl]methyl]-1H-pyrazole-4-carboxylate], the pest or weed control at 10 ppm with Phakopsora pachyrhizi (Phakopsora pachyrhizi) amounted to 100%; in assay [1] it was 0%. The same compound registered a pest or weed control at 50 ppm in the assay on Uncinula necator of 99%.
On to `CCO/C(=C\Oc1ccc(Cn2ccc(C(=O)OC(C)C)n2)cc1)C(F)(F)F` [compound 327], for which the “Test A rating (disease control)” value in the assay on Phakopsora pachyrhizi turned out to be 100%. For the same compound, the “Test B rating (disease control)” value in assay [1] stood at 0%.
As to `CCO/C(=C\Oc1cccc(Cn2cc(C(=O)OC(C)C)cn2)c1)C(F)(F)F` [compound 332], the “Test A rating (disease control)” value with Phakopsora pachyrhizi is 100%. Moreover, the “Test B rating (disease control)” value in assay [1] was 0%.
Turning to `C=CCOC(=O)c1cnn(Cc2cccc(O/C=C(\OCC)C(F)(F)F)c2)c1` [compound 333], in the assay on Phakopsora pachyrhizi, the “Test A rating (disease control)” value is 100%. Also, in assay [1], the “Test B rating (disease control)” value was 0%.
As to `CCO/C(=C\Oc1cccc(Cn2cc(C(=O)OCC(C)C)cn2)c1)C(F)(F)F` [compound 334], in the assay on Phakopsora pachyrhizi, the “Test A rating (disease control)” value worked out at 100%. The “Test B rating (disease control)” value in assay [1] is recorded as 0%.
For `C=C(C)COC(=O)c1cnn(Cc2cccc(O/C=C(\OCC)C(F)(F)F)c2)c1` [compound 335], the “Test A rating (disease control)” value with Phakopsora pachyrhizi was found to be 100%. For the same compound, the “Test B rating (disease control)” value in assay [1] worked out at 0%.
On to `C#CCOC(=O)c1cnn(Cc2cccc(O/C=C(\OCC)C(F)(F)F)c2)c1` [compound 336], for which, in the assay on Phakopsora pachyrhizi, the “Test A rating (disease control)” value is on record as 100%. For the same compound, in assay [1], the “Test B rating (disease control)” value is on record as 0%.
Consider `CCO/C(=C\Oc1cccc(Cn2cc(C(=O)OCC(C)=O)cn2)c1)C(F)(F)F` [compound 337], for which, in the assay with Phakopsora pachyrhizi, the “Test A rating (disease control)” value is 100%. Besides, the “Test B rating (disease control)” value in assay [1] came to 0%.
Take `CCO/C(=C\Oc1cccc(Cn2cc(C(=O)OCCCCl)cn2)c1)C(F)(F)F` [compound 338]: the “Test A rating (disease control)” value in the assay with Phakopsora pachyrhizi is listed as 100%. In assay [1], the “Test B rating (disease control)” value amounted to 0%.
Taken in the same sequence, the figures for `CCCCOC(=O)c1cnn(Cc2cccc(O/C=C(\OCC)C(F)(F)F)c2)c1` [compound 339] were 100% and 0%.
In the same order, the values of `CCO/C(=C\Oc1cccc(Cn2cc(C(=O)OCCOC)cn2)c1)C(F)(F)F` [compound 340] are 100% and 0%.
Taken in the same sequence, the figures for `CCO/C(=C\Oc1cccc(Cn2cc(C(=O)OCC3CC3)cn2)c1)C(F)(F)F` [compound 341] were 100% and 0%.
For the compound `CCO/C(=C\Oc1cccc(Cn2cc(C(=O)OCC3CCC3)cn2)c1)C(F)(F)F` [compound 342], in the assay with Phakopsora pachyrhizi, the “Test A rating (disease control)” value amounted to 100%. In addition, in assay [1], the “Test B rating (disease control)” value amounted to 0%.
Taken in the same sequence, the figures for `CCNC(=O)c1cnn(Cc2cccc(C/C=C(\OCC)C(F)(F)F)c2)c1` [compound 343] were 0% and 0%.
Taken in the same sequence, the figures for `CCCCOC(=O)c1ccn(Cc2ccc(O/C=C(\OCC)C(F)(F)F)cc2)n1` [compound 356] were 100% and 0%.
With `CCO/C(=C\Oc1ccc(Cn2ccc(C(=O)OCC(C)C)n2)cc1)C(F)(F)F` [compound 357], in the assay on Phakopsora pachyrhizi, the “Test A rating (disease control)” value is on record as 100%. Besides, in assay [1], the “Test B rating (disease control)” value came out at 9%.
In the same order, the values of `C=C(C)COC(=O)c1ccn(Cc2ccc(O/C=C(\OCC)C(F)(F)F)cc2)n1` [compound 358] are 100% and 0%.
In the same order, the values of `CCO/C(=C\Oc1ccc(Cn2ccc(C(=O)OCC(C)=O)n2)cc1)C(F)(F)F` [compound 359] are 100% and 0%.
`CCO/C(=C\Oc1ccc(Cn2ccc(C(=O)OCCOC)n2)cc1)C(F)(F)F` [compound 360]: in the assay with Phakopsora pachyrhizi, the “Test A rating (disease control)” value stood at 100%. In addition, the “Test B rating (disease control)” value in assay [1] is 0%.
In the same order, the values of `CCO/C(=C\Oc1ccc(Cn2ccc(C(=O)OCC3CCC3)n2)cc1)C(F)(F)F` [compound 361] are 100% and 0%.
Taken in the same sequence, the figures for `CCO/C(=C\Oc1ccc(Cn2ccc(C(=O)OCCCCl)n2)cc1)C(F)(F)F` [compound 362] were 100% and 0%.
